Data set [1] has as its system K1 P. falciparum strain. In words: In vitro antiplasmodial evaluation (SYBR Green I fluorescence-based method). The data set is classed as cell-based. The note with it: for SI (selectivity index = CC50/EC50): CC50 HepG2 / EC50 PfK1; for EC50: Plasmodium falciparum, K1, 72 h, multi-resistant K1 P. falciparum strain, 72 h incubation, read-out: PfK1 EC50. The method, then: It was maintained in continuous culture as described previously by Trager and Jensen. […] Parasitemia was maintained daily at between 1 and 3%. The P. falciparum drug susceptibility test was carried out by comparing quantities of DNA in treated and control cultures of parasite in human erythrocytes according to an SYBR Green I fluorescence-based method using a 96-well fluorescence plate reader. […] Duplicate assays were performed for each sample. After incubation, plates were frozen at -20 °C for 24 h. […] Fifteen μL of each sample were transferred to 96-well flat bottom non-sterile black plates (Greiner Bio-one) already containing 15 μL of the SYBR Green I lysis buffer (2X SYBR Green I, 20 mM Tris base pH 7.5, 20 mM EDTA, 0.008% w/v saponin, 0.08% w/v Triton X-100).

Data set [2] can be described thus: In vitro cytotoxicity evaluation (MTT). The data set is classed as cell-based. To be noted: human. The method, then: Triplicate assays were performed for each sample. Each plate-well was then microscope-examined for possible precipitate formation before the medium was aspirated from the wells. 100 μL of MTT (3-(4,5-dimethyl-2-thiazolyl)-2,5-diphenyl-2H-tetrazolium bromide) solution (0.5 mg/mL in medium without FBS) were then added to each well. […] After this time, the MTT solution was removed and DMSO (100 μL) was added to dissolve the resulting blue formazan crystals. Plates were shaken vigorously (700 rpm) for 10 min. The absorbance was measured at 570 nm with 630 nm as reference wavelength using a BIO-TEK ELx808 Absorbance Microplate Reader (LabX, Midland, ON, Canada). DMSO was used as blank and doxorubicin (purchased from Sigma Aldrich) as positive control. Cell viability was calculated as percentage of control (cells incubated without compound). […] CC50 values represent the mean value calculated from three independent experiments.

From article PMC7504092, “Synthesis and Antiplasmodial Evaluation of 4-Carboxamido- and 4-Alkoxy-2-Trichloromethyl Quinazolines” (Molecules, 2020) come the findings set out here.

Each structure is given as a SMILES string.

Consider `CCOc1nc(C(Cl)(Cl)Cl)nc2ccccc12` [Molecule 27, 4-Ethoxy-2-Trichloromethylquinazoline], for which the melting point (in general, the temperature, or range, at which the solid turns liquid) is 73 °C. Moreover, in data set [1], the “SI (selectivity index = CC50/EC50)” value came to 10 and the EC50 (usually the concentration needed to bring the measured effect to its halfway point) is 4.7 µM. Moreover, in data set [2], the 50% cytotoxic concentration (CC50) (in general, the concentration that lowers cell viability or growth by half) at 72 h stood at 47.1 µM.
In the same order, the values of `COCCOc1nc(C(Cl)(Cl)Cl)nc2ccccc12` [Molecule 35, 4-(2-Methoxyethoxy)-2-Trichloromethylquinazoline] are 63 °C, 23.1, 2.3 µM and 53.2 µM.
For `ClCCCOc1nc(C(Cl)(Cl)Cl)nc2ccccc12` [Molecule 37, 4-(3-Chloropropoxy)-2-Trichloromethylquinazoline], in that order: 77 °C, 14.4, 4.2 µM and 60.4 µM.
In the same order, the values of `ClCCOc1nc(C(Cl)(Cl)Cl)nc2ccccc12` [Molecule 36, 4-(2-Chloroethoxy)-2-Trichloromethylquinazoline] are 54 °C, >28, 2.2 µM and > 62.5 µM.
Consider `OCCOc1nc(C(Cl)(Cl)Cl)nc2ccccc12` [Molecule 34, 2-(2-Trichloromethylquinazolin-4-yloxy)ethanol], for which the melting point worked out at 93 °C. In addition, in data set [1], the “SI (selectivity index = CC50/EC50)” value is reported as 0.8 and the concentration for a half-maximal effect (EC50) is 10 µM. The same molecule yielded a CC50 at 72 h in data set [2] of 7.9 µM.
`O=C(Nc1nc(C(Cl)(Cl)Cl)nc2ccccc12)c1ccc([N+](=O)[O-])cc1` [Molecule 6, 4-Nitro-N-(2-Trichloromethylquinazolin-4-yl)benzamide] gave a melting point of 214 °C. In addition, in data set [1], the “SI (selectivity index = CC50/EC50)” value is 5.3 and the concentration for a half-maximal effect (EC50) is 4.18 µM. Half-maximal cytotoxicity in data set [2] (CC50 at 72 h) was put at 22.1 µM.
Molecule `O=C(Nc1nc(C(Cl)(Cl)Cl)nc2ccccc12)C1CCCCC1` [Molecule 25, N-(2-Trichloromethylquinazolin-4-yl)cyclohexanecarboxamide] yielded a melting point of 214 °C. For the same molecule, in data set [1], the “SI (selectivity index = CC50/EC50)” value was >6.5 and the concentration for a half-maximal effect (EC50) came out at 2.4 µM. The cytotoxic concentration (CC50) at 72 h in data set [2] is > 15.6 µM.
For `ClC(Cl)(Cl)c1nc(OCCBr)c2ccccc2n1` [Molecule 40, 4-(2-Bromoethoxy)-2-Trichloromethylquinazoline], in that order: 100 °C, >28, 2.2 µM and > 62.5 µM.
On to `CC(C)(C)C(=O)Nc1nc(C(Cl)(Cl)Cl)nc2ccccc12` [Molecule 23, N-(2-Trichloromethylquinazolin-4-yl)pivalamide], for which the melting point was determined as 157 °C. In data set [1], the “SI (selectivity index = CC50/EC50)” value was found to be 19.4 and the EC50 was determined as 1.8 µM. It took 34.9 µM to reach half-maximal cytotoxicity in data set [2] (CC50 at 72 h).
Turning to `O=C(Nc1nc(C(Cl)(Cl)Cl)nc2ccccc12)c1ccccc1` [Molecule 5, N-(2-Trichloromethylquinazolin-4-yl)benzamide], the melting point is 183 °C. Also, in data set [1], the “SI (selectivity index = CC50/EC50)” value amounted to 13.8 and the concentration giving a half-maximal response (EC50) turned out to be 1.76 µM. Further, in data set [2], the CC50 at 72 h was determined as 24.2 µM.
For `O=C(Nc1nc(C(Cl)(Cl)Cl)nc2ccccc12)c1cccc(F)c1` [Molecule 10, 3-Fluoro-N-(2-Trichloromethylquinazolin-4-yl)benzamide], in that order: 152 °C, 6.9, 2.86 µM and 19.9 µM.
`C#CC(Oc1nc(C(Cl)(Cl)Cl)nc2ccccc12)C(C)C` (stereo not drawn) [Molecule 33, 4-(4-Methylpent-1-yn-3-yloxy)-2-Trichloromethylquinazoline] gave a melting point of 96 °C. In data set [1], the “SI (selectivity index = CC50/EC50)” value is <3 and the EC50 was > 10 µM. For the same molecule, in data set [2], the midpoint of cytotoxicity, the CC50 at 72 h, lay at 30.6 µM.
For `C#CC(C)Oc1nc(C(Cl)(Cl)Cl)nc2ccccc12` (stereo not drawn) [Molecule 32, 4-(But-3-yn-2-yloxy)-2-Trichloromethylquinazoline], in that order: 92 °C, <4.5, > 10 µM and 45 µM.
In the same order, the values of `CCCOc1nc(C(Cl)(Cl)Cl)nc2ccccc12` [Molecule 28, 4-Propoxy-2-Trichloromethylquinazoline] are 39 °C, 15, 3.5 µM and 54.8 µM.
For `CC(C)C(=O)Nc1nc(C(Cl)(Cl)Cl)nc2ccccc12` [Molecule 22, N-(2-Trichloromethylquinazolin-4-yl)isobutyramide], in that order: 161 °C, >9.0, 3.5 µM and > 31.2 µM.
Turning to `O=C(Nc1nc(C(Cl)(Cl)Cl)nc2ccccc12)c1cccnc1` [Molecule 18, N-(2-Trichloromethylquinazolin-4-yl)nicotinamide], the melting point is 208 °C. For the same molecule, in data set [1], the “SI (selectivity index = CC50/EC50)” value is listed as 18.7 and the EC50 came out at 3.9 µM. This molecule also showed a CC50 at 72 h in data set [2] of 72.9 µM.
In the same order, the values of `O=C(Nc1nc(C(Cl)(Cl)Cl)nc2ccccc12)c1ccncc1` [Molecule 19, N-(2-Trichloromethylquinazolin-4-yl)isonicotinamide] are 151 °C, 12.7, 1.8 µM and 22.8 µM.
For `C#CCOc1nc(C(Cl)(Cl)Cl)nc2ccccc12` [Molecule 31, 4-(Prop-2-ynyloxy)-2-Trichloromethylquinazoline], in that order: 62 °C, 14.6, 3.4 µM and 49.6 µM.
